The values below come from ChEMBL document CHEMBL5038666, “Discovery of DNA-Targeting HDAC Inhibitors with Potent Antitumor Efficacy In Vivo That Trigger Antitumor Immunity” (J Med Chem, 2022).

Calls of active or inactive are those of the source. No cut-off for these calls is given here.

The target of series [1] is T1, Protein deacetylase HDAC6 (Homo sapiens, UniProt Q9UBN7).
T1 sequence (Q9UBN7 whole entry): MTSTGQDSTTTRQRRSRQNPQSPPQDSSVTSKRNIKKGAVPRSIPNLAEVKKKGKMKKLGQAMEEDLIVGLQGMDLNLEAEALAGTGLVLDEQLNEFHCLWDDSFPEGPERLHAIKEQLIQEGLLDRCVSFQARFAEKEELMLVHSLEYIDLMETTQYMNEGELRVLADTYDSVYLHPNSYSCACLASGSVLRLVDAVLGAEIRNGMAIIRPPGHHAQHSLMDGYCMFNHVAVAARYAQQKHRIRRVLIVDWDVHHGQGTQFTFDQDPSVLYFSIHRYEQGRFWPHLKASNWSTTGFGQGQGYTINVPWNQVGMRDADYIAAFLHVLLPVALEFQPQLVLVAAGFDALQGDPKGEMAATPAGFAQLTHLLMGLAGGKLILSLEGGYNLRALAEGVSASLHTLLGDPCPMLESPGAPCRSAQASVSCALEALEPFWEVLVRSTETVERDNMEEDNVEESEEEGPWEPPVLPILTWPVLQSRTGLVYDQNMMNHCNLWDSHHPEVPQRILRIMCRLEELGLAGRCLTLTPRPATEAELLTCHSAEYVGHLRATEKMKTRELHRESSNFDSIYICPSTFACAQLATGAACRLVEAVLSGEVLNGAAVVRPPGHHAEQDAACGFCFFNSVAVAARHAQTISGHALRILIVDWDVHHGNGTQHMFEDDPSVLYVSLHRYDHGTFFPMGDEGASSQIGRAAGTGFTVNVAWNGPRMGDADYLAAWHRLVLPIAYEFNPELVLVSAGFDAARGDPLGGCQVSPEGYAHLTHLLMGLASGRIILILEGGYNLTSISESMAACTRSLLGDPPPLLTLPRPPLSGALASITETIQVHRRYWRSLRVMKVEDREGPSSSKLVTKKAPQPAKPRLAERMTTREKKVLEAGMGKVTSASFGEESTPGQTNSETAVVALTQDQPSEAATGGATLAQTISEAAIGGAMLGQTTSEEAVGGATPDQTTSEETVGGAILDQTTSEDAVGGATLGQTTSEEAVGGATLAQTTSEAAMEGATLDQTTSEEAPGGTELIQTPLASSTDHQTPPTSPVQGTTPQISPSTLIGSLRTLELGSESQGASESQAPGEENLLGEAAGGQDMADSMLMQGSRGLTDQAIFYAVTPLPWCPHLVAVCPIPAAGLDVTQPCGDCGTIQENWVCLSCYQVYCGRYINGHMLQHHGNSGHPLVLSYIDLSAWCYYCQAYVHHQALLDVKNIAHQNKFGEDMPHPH
The experiment in a line: Inhibition of HDAC6 (unknown origin) using fluorogenic substrate incubated for 30 mins by fluorescence based assay.

A short description of series [2]: Toxicity in C57BL/6J mouse implanted with mouse B16-F10 cells assessed as lung damage at 60 mg/kg, IG administered for 12 days H and E staining based histopathological analysis. The class given is organism-based. The conditions noted are these: in vivo, po, 288 h, time 12 day.
A short description of series [3]: Toxicity in C57BL/6J mouse implanted with mouse B16-F10 cells assessed as heart damage at 60 mg/kg, IG administered for 12 days H and E staining based histopathological analysis. The format is organism-based. The conditions noted are these: in vivo, po, 288 h, time 12 day.
Series [4] relates to B16-F10. Kind of series: Antitumor immunity against mouse B16-F10 cells implanted in C57BL/6J mouse assessed as fold increase of CD8+ T cells in spleen by flow cytometry analysis relative to control. The class given is functional.
For series [5], the system named is B16-F10. The experiment in a line: Antitumor immunity against mouse B16-F10 cells implanted in C57BL/6J mouse assessed as fold increase of CD4+ T cells in spleen by flow cytometry analysis relative to control. The format is functional. (In general: Flow cytometry measures light scatter and fluorescence of single cells or particles in a stream.)
Series [6] relates to B16-F10. The experiment in a line: Antitumor immunity against mouse B16-F10 cells implanted in C57BL/6J mouse assessed as fold increase of CD3+ T cells in spleen by flow cytometry analysis relative to control. The format is functional.
Series [7] deals with B16-F10. The experiment in a line: Antitumor immunity against mouse B16-F10 cells implanted in C57BL/6J mouse assessed as fold increase in CD107a expression by flow cytometry analysis relative to control. The class given is functional.
Series [8] deals with B16-F10. Kind of series: Antitumor immunity against mouse B16-F10 cells implanted in C57BL/6J mouse assessed as fold increase in ICOS expression by flow cytometry analysis relative to control. The class given is functional.
For series [9], the system named is B16-F10. The experiment in a line: Antitumor immunity against mouse B16-F10 cells implanted in C57BL/6J mouse assessed as fold increase in CD69 expression by flow cytometry analysis relative to control. The class given is functional.
Series [10] deals with B16-F10. Kind of series: Antitumor immunity against mouse B16-F10 cells implanted in C57BL/6J mouse assessed as fold increase in IFN-gamma secretion by flow cytometry analysis relative to control. The class given is functional.
The subject of series [11] is B16-F10. Kind of series: Antitumor immunity against mouse B16-F10 cells implanted in C57BL/6J mouse assessed as increase in proportion of dendritic cells by flow cytometry analysis. The class given is functional, cell-based.
Series [12] deals with B16-F10. The experiment in a line: Antitumor immunity against mouse B16-F10 cells implanted in C57BL/6J mouse assessed as fold reduction in macrophages in tumor microenvironment by flow cytometry analysis relative to control. The class given is functional.
The test system of series [13] is B16-F10. Kind of series: Antitumor immunity against mouse B16-F10 cells implanted in C57BL/6J mouse assessed as fold reduction in M2 macrophages in tumor microenvironment by flow cytometry analysis relative to control. The class given is functional.
The test system of series [14] is Calf thymus DNA. The experiment in a line: Binding affinity to calf thymus DNA assessed as change in entropy at 500 microM by isothermal titration calorimetric analysis. The class given is nucleic-acid assay. The conditions noted are these: Bos taurus. (In general: Isothermal titration calorimetry measures the heat released or taken up as one component is titrated into another.)

Series [15] deals with KG-1. Kind of series: Potency index, ratio of SAHA IC50 to test compound IC50 for antiproliferative activity against human KG1 cells assessed as inhibition of cell growth measured after 48 hrs by MTT assay. The class given is functional.
Series [16] addresses T2, Histone deacetylase (Homo sapiens) (UniProt Q13547+O15379+Q9UBN7+Q92769+Q9UQL6+Q8WUI4+Q9BY41+Q96DB2+P56524+Q9UKV0+Q969S8). Kind of series: Inhibition of HDAC in human KG-1 cells assessed as increase in acetylation of histone H3 measured after 24 hrs by Western blot analysis. The class given is cell-based. The conditions noted are these: dose 0.5-2.5 µM. For orientation: Immunoblotting shows a protein as a band on a membrane.

Series [17] concerns the target T2, Histone deacetylase (Homo sapiens). The experiment in a line: Inhibition of HDAC in human KG1 cells assessed as increase in acetylation of alpha tubulin measured after 24 hrs by Western blot analysis. The conditions noted are these: KG-1, dose 0.5-2.5 µM. The format is cell-based.
Series [18] relates to KG-1. The experiment in a line: Downregulation of SPT16 expression in human KG-1 cells assessed as chromatin damage at 0.5 to […] measured after 24 hrs by Western blot analysis. The class given is functional, cell-based. The conditions noted are these: dose 0.5-2.5 µM.
Series [19] deals with KG-1. Kind of series: Downregulation of SSRP-1 expression in human KG-1 cells assessed as chromatin damage at 0.5 to […] measured after 24 hrs by Western blot analysis. The format is functional, cell-based. The conditions noted are these: dose 0.5-2.5 µM.
Series [20] concerns KG-1. Kind of series: Induction of apoptosis in human KG-1 cells assessed as total apoptotic cells at 1 uM measured after 24 hrs by Annexin V-FITC/propidium iodide staining based flow cytometry analysis relative to control. The class given is functional.
Series [21] concerns KG-1. The experiment in a line: Induction of apoptosis in human KG-1 cells assessed as increase in cleaved active caspase 3 level at 0.5 to […] measured after 24 hrs by Western blot analysis. The format is functional, cell-based. The conditions noted are these: dose 0.5-2.5 µM.
For series [22], the system named is B16-F10. The experiment in a line: Antitumor immunity against mouse B16-F10 cells implanted in C57BL/6J mouse assessed as increase in proportion of T cells in spleen by flow cytometry analysis. The class given is functional, cell-based.
Series [23] has as its system Calf thymus DNA. Kind of series: Binding affinity to calf thymus DNA assessed as increase in absorption at 20 uM by UV-vis absorption spectroscopy. The conditions noted are these: Bos taurus. The class given is nucleic-acid assay.

As a reminder, the IC50 is the concentration at which inhibition is half-maximal. A higher IC50 goes with lower potency.

Molecule `O=C(CCCCCCCOc1cccc(-c2nc3ccccc3[nH]2)c1)NO` returned an IC50 in [1] of 9.2 nM. In addition, the Activity result in [2] and in [3] was “Non-Toxic” in each case. The “fold change (FC)” value turned out to be 1.5 with B16-F10 [4]; 2 in the series with B16-F10 [5]; 1.6 with B16-F10 [6]; 1.5 with B16-F10 [7]; 1.5 with B16-F10 [8]; 1.5 with B16-F10 [9]. Also, the “fold change (FC)” value with B16-F10 [10] was 1.5; with B16-F10 [12], 1.7; in the series on B16-F10 [13], 1.5. Further, in the series with B16-F10 [11], the result was inactive.
On to `O=C(CCCCCCOc1cccc(-c2nc3ccccc3[nH]2)c1)NO`, for which the IC50 in series [1] worked out at 47 nM. Besides, the -TdeltaS in the series on Calf thymus DNA [14] was 74 kcal/mol. Also, the “fold change (FC)” value in the series with KG-1 [15] came out at 50; in the series with B16-F10 [12], 1.7. Further, the Activity result was “Dose-Dependent Effect” in [16], “Dose-Dependent Effect” in series [17], 56.9% with KG-1 [20] and “Non-Toxic” in [3]. Moreover, the outcome in the series with KG-1 [18], with KG-1 [19], in the series with KG-1 [21], in the series on B16-F10 [22] and in the series with Calf thymus DNA [23] was Active.
